The values below are quoted from earlier work in patent US20160279057A1, “Azelastine Formulations For Intranasal Nebulization And Irrigation” (CMPD LICENSING, LLC, priority 2015, published 2016).

Molecules are shown by their SMILES. Counter-ions that a name gives are not always drawn.

`CN1CCCC(n2nc(Cc3ccc(Cl)cc3)c3ccccc3c2=O)CC1` (stereo not drawn) [Azelastine hydrochloride, azelastine hydrochloride]: the solubility in ethanol result (ethanol) was “slightly soluble”. The solubility in glycerin entry (glycerin) is recorded as “slightly soluble”. Besides, under “methanol”, the solubility in methanol entry was “sparingly soluble”. Further, the solubility in octanol result (octanol) is on record as “slightly soluble”. The “solubility in propylene glycol” value (propylene glycol) is “sparingly soluble”. The solubility in water result (water) is given as “sparingly soluble”.
